{
  "source": "patent US11465978B2",
  "about": "“Anthranilic amides and the use thereof” (THE ADMINISTRATORS OF THE TULANE EDUCATIONAL FUND, priority 2013, dated 2022)",
  "key": {"MDA-MB-231 xenograft": {"system": "MDA-MB-231 xenograft", "assay": "Animal xenograft study, tumor volume", "type": "in vivo, SCID/beige female mice", "conditions": "SCID female mice, 1×10^6 MDA-MB231 cells bilaterally, 25 mg/kg on day 0, 30 days", "method": "End point tumor volume for SCID female mice injected bilaterally with 1×10^6 MDA-MB231 cells, n=10. Animals were treated on day 0 (cell injection day) with either DMSO or SC-1-151 (25 mg/kg). Tumor size was measured biweekly for 30 days using a digital caliper. Bars represent final average tumor volume±SEM.\nImmune-compromised SCID/beige female mice (29-32 days old) were obtained from Charles River Laboratories (Wilmington, Mass.). The animals were allowed a period of adaptation in a sterile and pathogen-free environment with food and water ad libitum. Breast cancer cells MDA-MB-231 were grown in 5% FBS charcoal-stripped DMEM for five days then harvested. Viable cells were mixed with PBS and Matrigel Reduced Factors (BD Biosciences, San Jose, Calif.). Injections (1×10^6 cells/injection) were made bilaterally into the mammary fat pad on day 0 (May 7, 2013). All the procedures in animals were carried out under anesthesia using a mix of isoflurane and oxygen delivered by mask. Animals were treated on day 0 with either DMSO or SC-1-151 (25 mg/kg). Tumor size was measured biweekly for 30 days using a digital caliper. Tumor volume was calculated using the following formula: 4/3πLM^2, where L is the larger radius and M is the smaller radius. On day 31, tumors were excised and blocked in OCT compound. Mice were monitored daily to insure survival after the surgery. […]"}, "Mia-PaCa2 cells": {"system": "Mia-PaCa2 cells", "assay": "Crystal violet morphology of pancreatic cancer cells", "type": "cell-based", "conditions": "Mia-PaCa2, 3 days", "method": "(A) Mia-PaCa2 cells were seeded in a 96-well plate at a density of 1,000 cells per well and treated with vehicle (DMSO) and SC-1-151. After 3 days, cells were fixed with glutaraldehyde and stained with crystal violet. (B) qPCR for EMT-regulating genes following SC-1-151 treatment. Pancreatic cancer cells were grown in 5% CS phenol free DMEM for 48 hours before treatment with vehicle (DMSO) or SC-1-151 (1 μM) for 24 hours. Cycle number was normalized to R-actin and vehicle-treated cells scaled to 1, n=3."}},
  "data": [
    {"smiles": "NC(=O)c1ccc(F)c(F)c1Nc1ccc(I)cc1F", "note": "[Compound 3, 3,4-difluoro-2-((2-fluoro-4-iodophenyl)amino)benzamide]", "values": [
      {"measurement": "tumorigenesis in vivo (end point tumor volume)", "setting": "MDA-MB-231 xenograft", "value": "decreases tumorigenesis"},
      {"measurement": "phenotype of pancreatic cancer cells", "setting": "Mia-PaCa2 cells", "value": "induces an epithelial phenotype"}
    ]}
  ]
}
